# In publication PMC10257182, “Discovery of senolytics using machine learning” (Nature Communications, 2023):
# Values joined by “and” are separate entries in the source; they are usually repeats but may differ in a detail not shown here. Equal entries are not always repeated. Where two headings read alike, the source gives them in different places.
# Key:
# Format in all cases: cell-based, human
# [1] = tested on: senescent A549 cells (etoposide-induced); assay: Nuclei count senolytic assay, therapy-induced senescence (TIS) model, senescent cells; settings: for % Cell Survival: senescence cells, single replicate
# Method in brief: (§1)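 Read-out is the imaged count of Hoechst 33342-stained nuclei (2 μg/ml final) in fixed, permeabilised A549 cells. Senescent cells had received etoposide at 100 μM for 48 h plus three days recovery in normal media. Compound exposure lasted 72 h across a 10-point […] range, 10 μM to 10 nM.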
# [2] = tested on: senescent IMR90 ER:RAS cells (4-OHT-induced); assay: Nuclei count (Hoechst, high content imaging) senolytic assay, oncogene-induced senescence (OIS) model, senescent cells
# Method in brief: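 Readout is automated image-based counting of Hoechst-stained nuclei per well, with loss of cells relative to untreated wells taken as cell death. Senescent (4-OHT, 100 nM) and control IMR90 ER:RAS cells were exposed to compounds for 72 h at 10 nM to 10 μM final.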
# [3] = tested on: non-senescent control A549 cells; assay: Nuclei count senolytic assay, TIS model, non-senescent control cells; settings: for % Cell Survival: control cells, single replicate
# Method in brief: as §1
structure (smiles),measurement,setting,value
"CO[C@H]1C[C@H](O[C@H]2CC[C@@]3(C)[C@H](CC[C@@H]4[C@@H]3CC[C@]3(C)[C@@H](C5=CC(=O)OC5)[C@@H](OC(C)=O)C[C@]43O)C2)O[C@@H](C)[C@@H]1O [Oleandrin, oleandrin]",viability at 10 µM,"[1]; Homo sapiens, A549, log (dose) [M] -5, Senescent cells, mean, read-out: Mean % Cell Survival",0.749%
same,viability at 4.68 µM,"[1]; Homo sapiens, A549, log (dose) [M] -5.33, Senescent cells, mean, read-out: Mean % Cell Survival",1.57%
same,viability at 2.19 µM,"[1]; Homo sapiens, A549, log (dose) [M] -5.66, Senescent cells, mean, read-out: Mean % Cell Survival",1.08%
same,viability at 1 µM,"[1]; Homo sapiens, A549, log (dose) [M] -6, Senescent cells, mean, read-out: Mean % Cell Survival",1.7%
same,viability at 0.468 µM,"[1]; Homo sapiens, A549, log (dose) [M] -6.33, Senescent cells, mean, read-out: Mean % Cell Survival",1.38%
same,viability at 0.219 µM,"[1]; Homo sapiens, A549, log (dose) [M] -6.66, Senescent cells, mean, read-out: Mean % Cell Survival",2.19%
same,viability at 0.1 µM,"[1]; Homo sapiens, A549, log (dose) [M] -7, Senescent cells, mean, read-out: Mean % Cell Survival",3.51%
same,viability at 0.0468 µM,"[1]; Homo sapiens, A549, log (dose) [M] -7.33, Senescent cells, mean, read-out: Mean % Cell Survival",9.16%
same,viability at 0.0219 µM,"[1]; Homo sapiens, A549, log (dose) [M] -7.66, Senescent cells, mean, read-out: Mean % Cell Survival",3.39%
same,viability at 0.01 µM,"[1]; Homo sapiens, A549, log (dose) [M] -8, Senescent cells, mean, read-out: Mean % Cell Survival",26.8%
same,IC50,"[1]; Homo sapiens, TIS model, etoposide-induced senescent A549, nuclei count, 72 h",5.4 nM
same,concentration at which a senolytic effect was reached,"[1]; TIS A549, Hoechst labelling, marginal effect on normal cells",10 nM
same,senolytic action (in words),"[1]; experimental screen, TIS senescent A549",strong senolytic action
same,% Cell Survival,[1]; log (dose) [M] -5,1.111% and 0.1906% and 0.9453%
same,% Cell Survival,[1]; log (dose) [M] -5.33,1.898% and 1.858% and 0.9453%
same,% Cell Survival,[1]; log (dose) [M] -5.66,1.065% and 1.477% and 0.6965%
same,% Cell Survival,[1]; log (dose) [M] -6,2.222% and 1.477% and 1.393%
same,% Cell Survival,[1]; log (dose) [M] -6.33,1.806% and 1.286% and 1.045%
same,% Cell Survival,[1]; log (dose) [M] -6.66,2.083% and 3.383% and 1.095%
same,% Cell Survival,[1]; log (dose) [M] -7,3.194% and 5.908% and 1.443%
same,% Cell Survival,[1]; log (dose) [M] -7.33,3.7037% and 20.1525% and 3.632%
same,% Cell Survival,[1]; log (dose) [M] -7.66,6.2037% and 0.09528% and 3.8806%
same,% Cell Survival,[1]; log (dose) [M] -8,34.3519% and 21.3435% and 24.6766%
same,viability at 10 µM,"[2]; Homo sapiens, IMR-90, 72 h, Senescent, log (dose) [M] -5, 72 h, mean n=3 (Fig 3C), read-out: Mean % Cell Survival",2.6%
same,viability at 4.677 µM,"[2]; Homo sapiens, IMR-90, 72 h, Senescent, log (dose) [M] -5.33, 72 h, mean n=3 (Fig 3C), read-out: Mean % Cell Survival",4.06%
same,viability at 2.188 µM,"[2]; Homo sapiens, IMR-90, 72 h, Senescent, log (dose) [M] -5.66, 72 h, mean n=3 (Fig 3C), read-out: Mean % Cell Survival",5.74%
same,viability at 1 µM,"[2]; Homo sapiens, IMR-90, 72 h, Senescent, log (dose) [M] -6, 72 h, mean n=3 (Fig 3C), read-out: Mean % Cell Survival",4.49%
same,viability at 0.4677 µM,"[2]; Homo sapiens, IMR-90, 72 h, Senescent, log (dose) [M] -6.33, 72 h, mean n=3 (Fig 3C), read-out: Mean % Cell Survival",5.02%
same,viability at 0.2188 µM,"[2]; Homo sapiens, IMR-90, 72 h, Senescent, log (dose) [M] -6.66, 72 h, mean n=3 (Fig 3C), read-out: Mean % Cell Survival",3.64%
same,viability at 0.1 µM,"[2]; Homo sapiens, IMR-90, 72 h, Senescent, log (dose) [M] -7, 72 h, mean n=3 (Fig 3C), read-out: Mean % Cell Survival",3.83%
same,viability at 0.04677 µM,"[2]; Homo sapiens, IMR-90, 72 h, Senescent, log (dose) [M] -7.33, 72 h, mean n=3 (Fig 3C), read-out: Mean % Cell Survival",6.59%
same,viability at 0.02188 µM,"[2]; Homo sapiens, IMR-90, 72 h, Senescent, log (dose) [M] -7.66, 72 h, mean n=3 (Fig 3C), read-out: Mean % Cell Survival",13.4%
same,viability at 0.01 µM,"[2]; Homo sapiens, IMR-90, 72 h, Senescent, log (dose) [M] -8, 72 h, mean n=3 (Fig 3C), read-out: Mean % Cell Survival",87.9%
same,viability at 10 µM,"[2]; Homo sapiens, IMR-90, senescence, log (dose) [M] -5, individual replicates (Fig 3D), read-out: % Cell Survival",3.12%
same,viability at 4.677 µM,"[2]; Homo sapiens, IMR-90, senescence, log (dose) [M] -5.33, individual replicates (Fig 3D), read-out: % Cell Survival",4.77%
same,viability at 2.188 µM,"[2]; Homo sapiens, IMR-90, senescence, log (dose) [M] -5.66, individual replicates (Fig 3D), read-out: % Cell Survival",7.52%
same,viability at 1 µM,"[2]; Homo sapiens, IMR-90, senescence, log (dose) [M] -6, individual replicates (Fig 3D), read-out: % Cell Survival",5.5%
same,viability at 0.4677 µM,"[2]; Homo sapiens, IMR-90, senescence, log (dose) [M] -6.33, individual replicates (Fig 3D), read-out: % Cell Survival",4.4%
same,viability at 0.2188 µM,"[2]; Homo sapiens, IMR-90, senescence, log (dose) [M] -6.66, individual replicates (Fig 3D), read-out: % Cell Survival",4.04%
same,viability at 0.1 µM,"[2]; Homo sapiens, IMR-90, senescence, log (dose) [M] -7, individual replicates (Fig 3D), read-out: % Cell Survival",4.95%
same,viability at 0.02188 µM,"[2]; Homo sapiens, IMR-90, senescence, log (dose) [M] -7.66, individual replicates (Fig 3D), read-out: % Cell Survival",12.3%
same,IC50,"[2]; Homo sapiens, IMR-90, OIS model, 4-OHT-induced IMR90 ER:RAS, nuclei count, 72 h",14 nM
same,dose showing the clearest / optimal senolytic effect,"[2]; OIS IMR90 ER:RAS, Hoechst nuclei count, marginal effect on normal cells",21.5 nM
same,senolytic activity (in words),"[2]; experimental screen, OIS IMR90 ER:RAS",clear senolytic action
same,senolytic index (SI),"[2]; ratio between the IC50 of control cells and the IC50 of senescent cells, OIS IMR90 ER:RAS",5.8
same,viability at 10 µM,"[3]; Homo sapiens, A549, log (dose) [M] -5, Control cells, mean, read-out: Mean % Cell Survival",1.02%
same,viability at 4.68 µM,"[3]; Homo sapiens, A549, log (dose) [M] -5.33, Control cells, mean, read-out: Mean % Cell Survival",1.71%
same,viability at 2.19 µM,"[3]; Homo sapiens, A549, log (dose) [M] -5.66, Control cells, mean, read-out: Mean % Cell Survival",1.34%
same,viability at 1 µM,"[3]; Homo sapiens, A549, log (dose) [M] -6, Control cells, mean, read-out: Mean % Cell Survival",1.19%
same,viability at 0.468 µM,"[3]; Homo sapiens, A549, log (dose) [M] -6.33, Control cells, mean, read-out: Mean % Cell Survival",1.55%
same,viability at 0.219 µM,"[3]; Homo sapiens, A549, log (dose) [M] -6.66, Control cells, mean, read-out: Mean % Cell Survival",2.98%
same,viability at 0.1 µM,"[3]; Homo sapiens, A549, log (dose) [M] -7, Control cells, mean, read-out: Mean % Cell Survival",6.37%
same,viability at 0.0468 µM,"[3]; Homo sapiens, A549, log (dose) [M] -7.33, Control cells, mean, read-out: Mean % Cell Survival",4.07%
same,viability at 0.0219 µM,"[3]; Homo sapiens, A549, log (dose) [M] -7.66, Control cells, mean, read-out: Mean % Cell Survival",25.8%
same,viability at 0.01 µM,"[3]; Homo sapiens, A549, log (dose) [M] -8, Control cells, mean, read-out: Mean % Cell Survival",34.2%
same,IC50,"[3]; Homo sapiens, TIS model, non-senescent A549, nuclei count, 72 h",19.5 nM
same,% Cell Survival,[3]; log (dose) [M] -5,0.2886% and 2.786% and 0%
same,% Cell Survival,[3]; log (dose) [M] -5.33,1.948% and 1.5% and 1.695%
same,% Cell Survival,[3]; log (dose) [M] -5.66,1.659% and 1.071% and 1.304%
same,% Cell Survival,[3]; log (dose) [M] -6,0% and 2.071% and 1.499%
same,% Cell Survival,[3]; log (dose) [M] -6.33,1.371% and 2.429% and 0.8475%
same,% Cell Survival,[3]; log (dose) [M] -6.66,4.113% and 2.929% and 1.89%
same,% Cell Survival,[3]; log (dose) [M] -7,5.267% and 9.857% and 3.977%
same,% Cell Survival,[3]; log (dose) [M] -7.33,0% and 0.07143% and 12.1252%
same,% Cell Survival,[3]; log (dose) [M] -7.66,49.3506% and 28.0313%
same,% Cell Survival,[3]; log (dose) [M] -8,102.742%
